Measured values: publication doi:10.1101/2021.10.07.463234v2 (biorxiv, 2021)
Counter-ions that a name gives are not always drawn.

Each molecule was assayed against SARS-CoV-2 Mac1 (Severe acute respiratory syndrome coronavirus 2, UniProt P0DTD1) (assay: biochemical). Conditions: 100 µM; inhibitor.
With `COc1ccc(C[C@@H](C)NC[C@H](O)c2ccc(O)c(NC=O)c2)cc1` (racemic) [Formoterol Hemifumarate] the “%inhibition” value was 0%.
`Nc1ccncc1` [4-Aminopyridine] was tested, and the “%inhibition” value was 5.817%.
For `COc1cc(O)c(C(=O)Nc2nc(C(=O)NCCN(C(C)C)C(C)C)cs2)cc1OC` [Acotiamide hydrochloride], the “%inhibition” value was 0%.
For `COc1cc(O)c(C(=O)Nc2nc(C(=O)NCCN(C(C)C)C(C)C)cs2)cc1OC` [Acotiamide], the “%inhibition” value was 14.33%.
With `CN(C)C/C=C/C(=O)Nc1cc2c(Nc3ccc(F)c(Cl)c3)ncnc2cc1O[C@H]1CCOC1` [Afatinib (BIBW2992) Dimaleate] the “%inhibition” value was 21%.
`CN(C)C/C=C/C(=O)Nc1cc2c(Nc3ccc(F)c(Cl)c3)ncnc2cc1O[C@H]1CCOC1` [Afatinib (BIBW2992)] was tested, and the “%inhibition” value was 0.3349%.

Same assay, conditions: read-out: %inhibition
Work on `COCC(=O)Nc1c(I)c(C(=O)NCC(O)CO)c(I)c(C(=O)N(C)CC(O)CO)c1I` (mixture of isomers) [Iopromide] yielded an inhibition at 100 µM of 0%.
With `CCC(C)n1ncn(-c2ccc(N3CCN(c4ccc(OC[C@H]5CO[C@](Cn6cncn6)(c6ccc(Cl)cc6Cl)O5)cc4)CC3)cc2)c1=O` (mixture of isomers) [Itraconazole] the inhibition at 100 µM was 1.14%.
With `OC[C@H]1O[C@@H](O[C@@H]2[C@@H](CO)OC(O)(CO)[C@H]2O)[C@H](O)[C@@H](O)[C@H]1O` (mixture of isomers) [Lactulose] the inhibition at 100 µM was 5.37%.
Work on `CCCCC(C)(O)C/C=C/[C@H]1[C@H](O)CC(=O)[C@@H]1CCCCCCC(=O)OC` (mixture of isomers) [Misoprostol] yielded an inhibition at 100 µM of 0%.
In the case of `CC(C)(C)NCC(O)COc1cccc2c1C[C@H](O)[C@H](O)C2` (mixture of isomers) [Nadolol], the inhibition at 100 µM is reported as 21.5%.
`NCC(O)c1ccc(O)cc1` (racemic) [(+,-)-Octopamine HCl] showed an inhibition at 100 µM of 0%.
In the case of `CN1C[C@@H]2c3ccccc3Oc3ccc(Cl)cc3[C@H]2C1` (racemic) [Asenapine maleate], the inhibition at 100 µM is reported as 0%.
`COC(=O)C1=C(C)NC(C)=C(C(=O)O[C@@H]2CCCN(Cc3ccccc3)C2)[C@@H]1c1cccc([N+](=O)[O-])c1` (racemic) [Benidipine HCl] gave an inhibition at 100 µM of 4.77%.
For `C[N+](C)(C)CC(O)CC(=O)[O-]` (racemic) [DL-Carnitine HCl], the inhibition at 100 µM was 0%.
In the case of `NC(=O)CCC(N)C(=O)O` (racemic) [DL-Glutamine], the inhibition at 100 µM is reported as 0%.
Work on `CC(C)(CO)C(O)C(=O)NCCCO` (racemic) [DL-Panthenol] yielded an inhibition at 100 µM of 0%.
In the case of `CC(C)n1c(/C=C/[C@@H](O)C[C@@H](O)CC(=O)O)c(-c2ccc(F)cc2)c2ccccc21` (racemic) [Fluvastatin Sodium], the inhibition at 100 µM is reported as 30%.
Molecule `CC(=O)N1CCN(c2ccc(OC[C@@H]3CO[C@@](Cn4ccnc4)(c4ccc(Cl)cc4Cl)O3)cc2)CC1` (racemic) [Ketoconazole] has an inhibition at 100 µM of 19.1%.
`CCN(CC)C(=O)[C@]1(c2ccccc2)C[C@@H]1CN` (racemic) [Milnacipran HCl] was tested, and the inhibition at 100 µM was 0%.
With `CCOc1ccccc1O[C@H](c1ccccc1)[C@H]1CNCCO1` (racemic) [Reboxetine mesylate] the inhibition at 100 µM was 0%.
`C[C@@H](NCCc1ccc(O)cc1)[C@@H](O)c1ccc(O)cc1` (racemic) [Ritodrine HCl] was tested, and the inhibition at 100 µM was 33.2%.
Molecule `CC(C)N1CCN(c2ccc(OC[C@H]3CO[C@](Cn4cncn4)(c4ccc(Cl)cc4Cl)O3)cc2)CC1` (racemic) [Terconazole] has an inhibition at 100 µM of 4.88%.
With `O=C(O)CCCC[C@@H]1CCSS1` (racemic) [Thioctic acid] the inhibition at 100 µM was 22.2%.
With `Cc1ccc(S(=O)(=O)NC(=O)NN2CC3CCC[C@@H]3C2)cc1` (stereo in doubt) [Gliclazide] the inhibition at 100 µM was 9.52%.
For `CC(=C(CCOC(=O)C(C)C)SSC(CCOC(=O)C(C)C)=C(C)N(C=O)Cc1cnc(C)nc1N)N(C=O)Cc1cnc(C)nc1N` (stereo in doubt) [Sulbutiamine], the inhibition at 100 µM was 12.8%.
Molecule `COc1ccc(C(=O)c2ccccc2O)c(O)c1` [2,2′-Dihydroxy-4-methoxybenzophenone] has an inhibition at 100 µM of 8.7%.
`CC1(C)OC(=O)NC1=O` [5,5-Dimethyloxazolidine-2,4-dione] showed an inhibition at 100 µM of 0.163%.
Work on `NCC(=O)CCC(=O)O` [5-Aminolevulinic acid HCl] yielded an inhibition at 100 µM of 7.12%.
With `N[C@@H](Cc1c[nH]c2ccc(O)cc12)C(=O)O` [5-hydroxytryptophan (5-HTP)] the inhibition at 100 µM was 0%.
`S=c1nc[nH]c2nc[nH]c12` [6-Mercaptopurine (6-MP) Monohydrate] was tested, and the inhibition at 100 µM was 4.11%.
Molecule `Nc1c2ccccc2nc2ccccc12` [9-Aminoacridine] has an inhibition at 100 µM of 0.915%.
`CC1(C)[C@@H]2CC[C@@]1(C)C(=O)C2` [(+)-Camphor] was tested, and the inhibition at 100 µM was 0%.
With `C/C=C1\[C@H]2C=C(C)C[C@]1(N)c1ccc(=O)[nH]c1C2` [(-)-Huperzine A (HupA)] the inhibition at 100 µM was 0%.
With `CC(C)[C@@H]1CC[C@@H](C)C[C@H]1O` [(-)-Menthol] the inhibition at 100 µM was 0%.
`CC(C)NC[C@@H](O)COc1ccc(CC(N)=O)cc1` [(R)-(+)-Atenolol HCl] showed an inhibition at 100 µM of 9.19%.
`NC[C@H](CC(=O)O)c1ccc(Cl)cc1` [(R)-baclofen] gave an inhibition at 100 µM of 0%.
Molecule `C[C@H](Oc1cc(-c2cnn(C3CCNCC3)c2)cnc1N)c1c(Cl)ccc(F)c1Cl` [(S)-crizotinib] has an inhibition at 100 µM of 4.9%.
Molecule `NC(=O)c1ncn([C@@H]2O[C@H](CO)[C@@H](O)[C@H]2O)c1N` [AICAR (Acadesine)] has an inhibition at 100 µM of 14.6%.
`Nc1nc(NC2CC2)c2ncn([C@H]3C=C[C@@H](CO)C3)c2n1` [Abacavir sulfate] showed an inhibition at 100 µM of 0%.
Work on `CCN1CCN(Cc2ccc(Nc3ncc(F)c(-c4cc(F)c5nc(C)n(C(C)C)c5c4)n3)nc2)CC1` [Abemaciclib] yielded an inhibition at 100 µM of 4.16%.
With `CC#CC(=O)N1CCC[C@H]1c1nc(-c2ccc(C(=O)Nc3ccccn3)cc2)c2c(N)nccn12` [Acalabrutinib (ACP-196)] the inhibition at 100 µM was 9.75%.
Molecule `CC(=O)NCCCS(=O)(=O)O` [Acamprosate Calcium] has an inhibition at 100 µM of 0%.
In the case of `C[C@H]1O[C@H](O[C@H]2[C@H](O)[C@@H](O)[C@@H](O[C@H]3[C@H](O)[C@@H](O)C(O)O[C@@H]3CO)O[C@@H]2CO)[C@H](O)[C@@H](O)[C@@H]1N[C@H]1C=C(CO)[C@@H](O)[C@H](O)[C@H]1O` (some centres unmarked) [Acarbose], the inhibition at 100 µM is reported as 16%.
For `CCCC(=O)Nc1ccc(OCC(O)CNC(C)C)c(C(C)=O)c1` (centres unmarked) [Acebutolol HCl], the inhibition at 100 µM was 0%.
With `O=C(O)COC(=O)Cc1ccccc1Nc1c(Cl)cccc1Cl` [Aceclofenac] the inhibition at 100 µM was 0%.
For `CC(=O)N[C@@H](CCC(N)=O)C(=O)O` [Aceglutamide], the inhibition at 100 µM was 0%.
`COc1ccc2c(c1)c(CC(=O)OCC(=O)O)c(C)n2C(=O)c1ccc(Cl)cc1` [Acemetacin] was tested, and the inhibition at 100 µM was 8.64%.
With `CC(=O)Nc1ccccc1` [Acetanilide] the inhibition at 100 µM was 30.4%.
Molecule `CC(=O)c1ccc(S(=O)(=O)NC(=O)NC2CCCCC2)cc1` [Acetohexamide] has an inhibition at 100 µM of 17.8%.
Work on `CC(=O)NO` [Acetohydroxamic acid] yielded an inhibition at 100 µM of 0%.
`CC(=O)OCC[N+](C)(C)C` [Acetylcholine iodide] showed an inhibition at 100 µM of 0%.
`CC(=O)N[C@@H](CS)C(=O)O` [Acetylcysteine] gave an inhibition at 100 µM of 0%.
In the case of `CC(=O)NC(CC(C)C)C(=O)O` (centres unmarked) [Acetylleucine], the inhibition at 100 µM is reported as 1.78%.
With `Nc1nc2c(ncn2COCCO)c(=O)[nH]1` [Aciclovir] the inhibition at 100 µM was 19.8%.
Work on `Cc1cnc(C(=O)O)c[n+]1[O-]` [Acipimox] yielded an inhibition at 100 µM of 14%.
For `COc1cc(C)c(/C=C/C(C)=C/C=C/C(C)=C/C(=O)O)c(C)c1C` [Acitretin], the inhibition at 100 µM was 7.72%.
Work on `O=C(O[C@H]1C[N+]2(CCCOc3ccccc3)CCC1CC2)C(O)(c1cccs1)c1cccs1` [Aclidinium Bromide] yielded an inhibition at 100 µM of 0%.
`CC(=O)Nc1ccc(CC(=O)O)cc1` [Actarit] gave an inhibition at 100 µM of 2.1%.
For `COc1ccc(-c2ccc3cc(C(=O)O)ccc3c2)cc1[C@]12C[C@H]3C[C@H](C[C@H](C3)C1)C2` [Adapalene], the inhibition at 100 µM was 27.7%.
`CC(C)(C)C(=O)OCOP(=O)(COCCn1cnc2c(N)ncnc21)OCOC(=O)C(C)(C)C` [Adefovir Dipivoxil] showed an inhibition at 100 µM of 37.1%.
For `Nc1[nH]cnc2ncnc1-2` [Adenine HCl], the inhibition at 100 µM was 9.72%.
`Nc1ncnc2nc[nH]c12` [Adenine sulfate] gave an inhibition at 100 µM of 4.13%.
`Nc1ncnc2c1ncn2[C@@H]1O[C@H](CO)[C@@H](O)[C@H]1O` [Adenosine] showed an inhibition at 100 µM of 0%.
Work on `CCN(CC)CCOC(=O)C(c1ccccc1)c1ccccc1` [Adiphenine HCl] yielded an inhibition at 100 µM of 6.54%.
Work on `CNCC(=O)c1ccc(O)c(O)c1` [Adrenalone HCl] yielded an inhibition at 100 µM of 6.88%.
`Cc1ccccc1-n1c(CF)nc2ccc(N)cc2c1=O` [Afloqualone] showed an inhibition at 100 µM of 0%.
`Cn1ncc(Cl)c1-c1cc(C(=O)N[C@H](CN)Cc2cccc(F)c2)sc1Cl` [Afuresertib (GSK2110183)] was tested, and the inhibition at 100 µM was 0%.
In the case of `COc1ccc2cccc(CCNC(C)=O)c2c1` [Agomelatine], the inhibition at 100 µM is reported as 36.5%.
`CC[C@H]1[C@@H]2C[C@H]3[C@@H]4N(C)c5ccccc5[C@]45C[C@@H]([C@H]2[C@H]5O)N3[C@@H]1O` [Ajmaline] was tested, and the inhibition at 100 µM was 18.1%.
With `CCNC(=O)[C@@H]1CCCN1C(=O)[C@H](CCCN=C(N)N)NC(=O)[C@H](CC(C)C)NC(=O)[C@@H](C)NC(=O)[C@H](Cc1ccc(O)cc1)NC(=O)[C@H](CO)NC(=O)[C@H](Cc1c[nH]c2ccccc12)NC(=O)[C@H](Cc1cnc[nH]1)NC(=O)[C@@H]1CCC(=O)N1` [Alarelin Acetate] the inhibition at 100 µM was 0.14%.
Molecule `CCC[S+]([O-])c1ccc2[nH]c(NC(=O)OC)nc2c1` (centres unmarked) [Albendazole Oxide] has an inhibition at 100 µM of 28%.
`CCCSc1ccc2[nH]c(NC(=O)OC)nc2c1` [Albendazole] gave an inhibition at 100 µM of 0%.
`CN1CCC(=C2c3ccccc3CCn3c(C=O)cnc32)CC1` [Alcaftadine] gave an inhibition at 100 µM of 0%.
`CCc1cc2c(cc1N1CCC(N3CCOCC3)CC1)C(C)(C)c1[nH]c3cc(C#N)ccc3c1C2=O` [Alectinib hydrochloride] gave an inhibition at 100 µM of 9.69%.
With `NCCCC(O)(P(=O)(O)O)P(=O)(O)O` [Alendronate sodium trihydrate] the inhibition at 100 µM was 1.69%.
Molecule `C=C1/C(=C\C=C2/CCC[C@]3(C)[C@@H]([C@H](C)CCCC(C)C)CC[C@@H]23)C[C@@H](O)C[C@@H]1O` [Alfacalcidol] has an inhibition at 100 µM of 0%.
